Data published in EP3725763A1, “MYOCARDIAL REGENERATION PROMOTING COMPOUNDS, PREPARATION METHOD THEREOF, PHARMACEUTICAL COMPOSITION, AND THEIR USE” (priority 2019, dated 2020).

Test: MTT assay for cell viability testing
Format: cell-based, rats
Conditions: rat; H9C2 cells, 48 hours treatment at the concentrations of Table 3 (0.4 to 25 µg/ml); DMSO group = 100%; Figure 1
Procedure: 1.1: cell culture of H9C2 cell line
H9C2 cell line is a cardiac myoblast derived from the rats and is purchased from Food Industry Research and Development Institute, Taiwan. The culture medium is 90% (v/v) Dulbecco's modified Eagle's medium with 4 mM L-glutamine (Gibco™, Cat.12800017) adjusted to contain 4.5g/L glucose and 1.5g/L sodium bicarbonate (Sigma, Cat.S5761) and 10% (v/v) fetal bovine serum (Gibco™, Cat.10437028). Incubate at 37°C in a 5% (v/v) CO2 in air atmosphere.
1.2: MTT assay for cell viability testing
In order to find out the feasible concentration of compounds without cytotoxicity, cells was cultured to 90% confluency and cells were seeded in a 24-well plate at a concentration of 1.5*10^4 cell/well. […] After washing with PBS buffer (phosphate buffered saline), 0.5 mg/ ml of MTT (Thiazolyl Blue Tetrazolium Bromide; Sigma, Cat.M2128) was added and incubate the 24-well plate at 37°C for 4 hours. […] Then the supernatant was removed and 200 µL DMSO was added to dissolve the crystal. Mix each sample again using a pipette and read absorbance at 570 nm (the values are averages of triplicate). The value of the DMSO group is 100% to represent that the cell viability is 100%.

| Compound | viability at 48 h [%] |
| --- | --- |
| O=C(O)/C=C/c1ccc(OC(=O)CCCC(=O)O)cc1 [Compound 1] | 80 to 120 |
| O=C(O)/C=C/c1ccc(OC(=O)CCCC(=O)O)c(O)c1 [Compound 2] | 80 to 120 |
| O=C(O)/C=C/c1ccc(OC(=O)CCCC(=O)O)c(OC(=O)CCCC(=O)O)c1 [Compound 3] | 80 to 120 |
| O=C(O)/C=C/c1ccc(OC(=O)CCCCC(=O)O)cc1 [Compound 4] | 80 to 120 |
| COC(=O)CCCCC(=O)Oc1ccc(/C=C/C(=O)O)cc1 [Compound 5] | 80 to 120 |
| COC(=O)CCCCC(=O)Oc1ccc(/C=C/C(=O)O)cc1OC(=O)CCCCC(=O)OC [Compound 6] | 80 to 120 |
| CC(=O)Oc1ccccc1C(=O)Oc1ccc(/C=C/C(=O)O)cc1 [Compound 7] | 80 to 120 |
| CC(=O)Oc1ccccc1C(=O)Oc1ccc(/C=C/C(=O)O)cc1O [Compound 8] | 80 to 120 |
| O=C(O)/C=C/c1ccc(OC(=O)Cc2cccc(Cl)c2)cc1 [Compound 9] | 80 to 120 |
| O=C(O)/C=C/c1ccc(OC(=O)Cc2cccc(Cl)c2)c(OC(=O)Cc2cccc(Cl)c2)c1 [Compound 10] | 80 to 120 |
| COC(=O)/C=C/c1ccc(OC(=O)Cc2cccc(Cl)c2)c(OC(=O)Cc2cccc(Cl)c2)c1 [Compound 11] | 80 to 120 |
| CC(C)(C)OC(=O)NCCCC(=O)Oc1ccc(/C=C/C(=O)O)cc1OC(=O)CCCNC(=O)OC(C)(C)C [Compound 12] | 80 to 120 |
| O=C(O)/C=C/c1ccc(NC(=O)CCCC(=O)O)cc1 [Compound 13] | 80 to 120 |
| COC(=O)/C=C/C(=O)Nc1ccc(/C=C/C(=O)O)cc1 [Compound 14] | 80 to 120 |
| CC(=O)Oc1ccccc1C(=O)N(C(=O)c1ccccc1OC(C)=O)c1ccc(/C=C/C(=O)O)cc1 [Compound 15] | 80 to 120 |
| COC(=O)/C=C/c1ccccc1 [Compound 17] | 80 to 120 |
| COC(=O)/C=C/c1ccc(O)c(O)c1 [Compound 18] | 80 to 120 |
| O=C(/C=C/c1ccccc1)OCc1ccc(O)cc1 [Compound 21] | 80 to 120 |
| O=C(O)/C=C/c1ccc(O)cc1O [Compound 24] | 80 to 120 |

| Compound | viability at 48 h [%] |
| --- | --- |
| CC(=O)C(=O)Oc1ccc(/C=C/C(=O)O)cc1 [Compound 27] | 80 to 120 |
| CC(=O)Oc1ccc(/C=C/C(=O)O)cc1 [Compound 28] | 80 to 120 |
| COC(=O)/C=C/c1ccc(OC(=O)c2ccccc2OC(C)=O)c(OC(=O)c2ccccc2OC(C)=O)c1 [Compound 29] | 80 to 120 |
| O=C(O)/C=C/c1ccc(OC(=O)c2cccnc2)cc1 [Compound 30] | 80 to 120 |
| Nc1ccc(/C=C/C(=O)O)cc1 [Compound 31] | 80 to 120 |
| O=C(O)/C=C/C(=O)Nc1ccc(/C=C/C(=O)O)cc1 [Compound 32] | 80 to 120 |
| O=C(O)/C=C/c1ccc(NC(=O)c2ccccc2O)cc1 [Compound 33] | 80 to 120 |
| O=C(/C=C/c1ccc2c(c1)OCO2)Nc1ccc(O)cc1 [Compound 34] | 80 to 120 |
| Cc1ccc(/C=C/C(=O)c2cccc(NC(=O)/C=C/c3ccc4c(c3)OCO4)c2)s1 [Compound 35] | 80 to 120 |
| O=C(O)/C=C/c1ccncc1 [Compound 36] | 80 to 120 |
| O=C(O)/C=C/c1cccnc1 [Compound 37] | 80 to 120 |
| O=C(O)/C=C/c1cccs1 [Compound 38] | 80 to 120 |
| O=C(O)/C=C/c1ccsc1 [Compound 39] | 80 to 120 |
| C=CCOc1ccc(/C=C/C(=O)c2sccc2N)c(OCC=C)c1 [Compound 40] | 80 to 120 |
| O=C(/C=C/c1ccsc1)c1ccc(O)cc1 [Compound 41] | 80 to 120 |
| O=C(/C=C/c1ccc2c(c1)OCO2)n1cccc1 [Compound 42] | 80 to 120 |
| O=C(/C=C/c1ccccn1)c1ccccn1 [Compound 43] | 80 to 120 |
| Cc1ccc(/C=C/C(=O)c2sc(N)nc2C)s1 [Compound 44] | 80 to 120 |
| O=C(/C=C/c1ccc(O)c(O)c1)O[C@H](Cc1ccc(O)c(O)c1)C(=O)O [Compound 46] | 80 to 120 |
